Experimental data from the NIST ThermoML archive (doi:10.1021/je500792x).

Assay: xn = mol fraction of the nth substance listed
Settings: Gas, Buoyancy - hydrostatic balance with magnetic suspension - two sinkers

C [methane] + CCC
Settings	mass density [kg/m3]
293.15 K, 1153.9 kPa, x1 = 0.2658	20.3554
293.15 K, 1175 kPa, x1 = 0.2658	20.8043
293.15 K, 1187.5 kPa, x1 = 0.2658	21.0718
293.15 K, 1209.4 kPa, x1 = 0.5069	16.361
293.15 K, 1399.6 kPa, x1 = 0.5069	19.2777
293.15 K, 1605.8 kPa, x1 = 0.5069	22.5759
298.14 K, 160.58 kPa, x1 = 0.2658	2.414
298.15 K, 311.48 kPa, x1 = 0.2658	4.7646
298.15 K, 471.27 kPa, x1 = 0.2658	7.3487
298.15 K, 493.82 kPa, x1 = 0.7498	4.6835
298.15 K, 500.2 kPa, x1 = 0.7498	4.742
298.15 K, 605.41 kPa, x1 = 0.2658	9.6013
298.15 K, 758.38 kPa, x1 = 0.2658	12.2732
298.15 K, 785.06 kPa, x1 = 0.7498	7.5358
298.15 K, 909.2 kPa, x1 = 0.2658	15.0282
298.15 K, 999.01 kPa, x1 = 0.7498	9.679
298.15 K, 1000.6 kPa, x1 = 0.7498	9.6924
298.15 K, 1055.1 kPa, x1 = 0.2658	17.8236
298.15 K, 1094 kPa, x1 = 0.7498	10.6384
298.15 K, 1201.2 kPa, x1 = 0.2658	20.7664
298.15 K, 1355.7 kPa, x1 = 0.2658	24.0659
298.15 K, 1372.4 kPa, x1 = 0.7498	13.507
298.15 K, 1686.6 kPa, x1 = 0.7498	16.8301
298.15 K, 1999.5 kPa, x1 = 0.7498	20.2389
298.15 K, 2001.4 kPa, x1 = 0.7498	20.2558
298.15 K, 2075.4 kPa, x1 = 0.7498	21.0754
298.15 K, 3006.3 kPa, x1 = 0.7498	31.9148
298.15 K, 3043.9 kPa, x1 = 0.7498	32.3714
298.15 K, 3990.5 kPa, x1 = 0.7498	44.5527
298.15 K, 4003.1 kPa, x1 = 0.7498	44.7224
298.15 K, 4119.5 kPa, x1 = 0.7498	46.3151
298.15 K, 4424.2 kPa, x1 = 0.7498	50.5647
298.15 K, 4993.9 kPa, x1 = 0.7498	58.9113
298.15 K, 5997.5 kPa, x1 = 0.7498	74.9816
298.15 K, 5999.6 kPa, x1 = 0.7498	75.0173
323.16 K, 434.83 kPa, x1 = 0.5069	4.9489
323.16 K, 609.43 kPa, x1 = 0.5069	7.005
323.16 K, 747.99 kPa, x1 = 0.7498	6.5657
323.16 K, 981.92 kPa, x1 = 0.7498	8.6824
323.16 K, 1028.4 kPa, x1 = 0.5069	12.1152
323.16 K, 1206.2 kPa, x1 = 0.5069	14.365
323.16 K, 1225.9 kPa, x1 = 0.7498	10.9233
323.16 K, 1407.1 kPa, x1 = 0.5069	16.9693
323.16 K, 1492.3 kPa, x1 = 0.7498	13.4094
323.16 K, 1603.4 kPa, x1 = 0.5069	19.5802
323.16 K, 1721 kPa, x1 = 0.7498	15.578
323.16 K, 1804.7 kPa, x1 = 0.5069	22.3318
323.16 K, 1913.8 kPa, x1 = 0.5069	23.855
323.16 K, 1988.8 kPa, x1 = 0.7498	18.1586
323.16 K, 3017.7 kPa, x1 = 0.7498	28.51
323.16 K, 4475.4 kPa, x1 = 0.7498	44.4692
323.16 K, 5928.8 kPa, x1 = 0.7498	62.0416
323.17 K, 161.42 kPa, x1 = 0.2658	2.2297
323.17 K, 240.14 kPa, x1 = 0.5069	2.7038
323.17 K, 277.8 kPa, x1 = 0.2658	3.8766
323.17 K, 380.81 kPa, x1 = 0.2658	5.3632
323.17 K, 474.08 kPa, x1 = 0.2658	6.7339
323.17 K, 556.87 kPa, x1 = 0.2658	7.9706
323.17 K, 653.58 kPa, x1 = 0.2658	9.4407
323.17 K, 814.12 kPa, x1 = 0.5069	9.4697
323.17 K, 861.14 kPa, x1 = 0.2658	12.694
323.17 K, 956.3 kPa, x1 = 0.2658	14.2336
323.17 K, 1057.6 kPa, x1 = 0.2658	15.9088
323.17 K, 1155.4 kPa, x1 = 0.2658	17.5614
373.14 K, 736.34 kPa, x1 = 0.5069	7.2655
373.14 K, 1298.1 kPa, x1 = 0.5069	13.0615
373.14 K, 1387.2 kPa, x1 = 0.5069	14.0021
373.14 K, 1906.7 kPa, x1 = 0.5069	19.6043
373.15 K, 286.24 kPa, x1 = 0.5069	2.7813
373.15 K, 293.98 kPa, x1 = 0.7498	2.1956
373.15 K, 494.25 kPa, x1 = 0.7498	3.7047
373.15 K, 559.53 kPa, x1 = 0.5069	5.4874
373.15 K, 587.98 kPa, x1 = 0.5069	5.7723
373.15 K, 732.21 kPa, x1 = 0.7498	5.5128
373.15 K, 776.15 kPa, x1 = 0.5069	7.6695
373.15 K, 942.67 kPa, x1 = 0.5069	9.3682
373.15 K, 969.14 kPa, x1 = 0.5069	9.6405
373.15 K, 973.87 kPa, x1 = 0.7498	7.3646
373.15 K, 1118.7 kPa, x1 = 0.5069	11.1859
373.15 K, 1177.4 kPa, x1 = 0.5069	11.7969
373.15 K, 1222.4 kPa, x1 = 0.7498	9.2859
373.15 K, 1491.1 kPa, x1 = 0.7498	11.3819
373.15 K, 1497 kPa, x1 = 0.5069	15.1688
373.15 K, 1581.5 kPa, x1 = 0.5069	16.0735
373.15 K, 1707.3 kPa, x1 = 0.5069	17.4293
373.15 K, 1745.3 kPa, x1 = 0.5069	17.8434
373.15 K, 1990.9 kPa, x1 = 0.7498	15.3338
373.15 K, 1998.3 kPa, x1 = 0.7498	15.3921
373.15 K, 1999.3 kPa, x1 = 0.5069	20.6289
373.15 K, 3998.4 kPa, x1 = 0.7498	31.915
373.15 K, 4503 kPa, x1 = 0.7498	36.2589
373.15 K, 5859.6 kPa, x1 = 0.7498	48.2829
373.16 K, 150.36 kPa, x1 = 0.2658	1.7881
373.16 K, 249.5 kPa, x1 = 0.2658	2.984
373.16 K, 442.47 kPa, x1 = 0.2658	5.3479
373.16 K, 487.18 kPa, x1 = 0.7498	3.6521
373.16 K, 564.91 kPa, x1 = 0.2658	6.8735
373.16 K, 592.63 kPa, x1 = 0.2658	7.2228
373.16 K, 676.04 kPa, x1 = 0.2658	8.2772
373.16 K, 733.18 kPa, x1 = 0.2658	9.007
373.16 K, 866.5 kPa, x1 = 0.2658	10.7249
373.16 K, 883.43 kPa, x1 = 0.2658	10.9464
373.16 K, 963.18 kPa, x1 = 0.2658	11.9881
373.16 K, 991.05 kPa, x1 = 0.7498	7.4967
373.16 K, 1034.3 kPa, x1 = 0.2658	12.9279
373.16 K, 1057.2 kPa, x1 = 0.2658	13.2303
373.16 K, 1156.4 kPa, x1 = 0.2658	14.557
373.16 K, 1174.7 kPa, x1 = 0.2658	14.8058
373.16 K, 1293.1 kPa, x1 = 0.2658	16.4139
373.16 K, 1468.2 kPa, x1 = 0.7498	11.1998
373.16 K, 1985.8 kPa, x1 = 0.7498	15.2929
373.16 K, 2987.4 kPa, x1 = 0.7498	23.4236
373.16 K, 2996.6 kPa, x1 = 0.7498	23.4974
373.16 K, 3945 kPa, x1 = 0.7498	31.4611
373.16 K, 4881.1 kPa, x1 = 0.7498	39.5669
373.16 K, 6041.3 kPa, x1 = 0.7498	49.9291
373.17 K, 281.96 kPa, x1 = 0.2658	3.3776
373.17 K, 361.95 kPa, x1 = 0.2658	4.3551
373.17 K, 469.53 kPa, x1 = 0.2658	5.683
